Measured values published in patent publication EP0604653A1, “COMPLEX OF COMPOUND HAVING CHALCONE SKELETON” (TAISHO PHARMACEUTICAL CO. LTD, priority 1991, dated 1993).

Legend:
[1] = test system: Prostaglandin (PG) Metabolic Enzyme; experiment: PG metabolic enzyme activity in excised gastric mucosa after dosing (decomposition of PGE₁ as index); assay type: in vivo; settings: rats, i.d., dose of SU-740 31.4 mg/kg (Complex 200.0 mg/kg)
Description: The test was carried out in accordance with the method described in M. Muramatsu et al., Biochemical Pharmacology, Vol. 33(16), p. 2629 (1984). The sample dispersed in a 1 % gum arabic suspension was intraduodenally administered to rats having been deprived of food for 24 hours so as to make a dose of SU-740 become 31.4 mg/kg. Two hours later, the gastric mucosa was excised, and a PG metabolic enzyme was extracted therefrom and analyzed with a spectrophotometer. The effect was examined taking decomposition of PGE₁ as an index.

[2] = Test of absorbability after oral capsule administration (cross-over, Latin square); assay type: in vivo; settings: beagles, dose of SU-740 100 mg/kg, FIG. 5
Description: The test was conducted by a cross-over testing method according to a Latin square method using 15 beagles divided into three groups each consisting of 5 test animals. Each sample was put in a capsule and orally given to the animal so as to make a dose of SU-740 become 100 mg/kg.

[3] = test system: PGE₂ Content in Rat Gastric Mucosa; experiment: PGE₂ content in gastric mucosa after dosing (radioimmunoassay); assay type: in vivo; settings: rats, i.d., dose of SU-740 31.4 mg/kg (Complex 200.0 mg/kg)
Description: The test was carried out in accordance with the method described in M. Muramatsu et al., Life Science, Vol. 41, p. 315 (1987). The sample dispersed in a 1 % gum arabic suspension was intraduodenally administered to rats having been deprived of food for 24 hours so as to make a dose of SU -740 become 31.4 mg/kg. After 24 hours from the administration, the gastric mucosa was excised under anesthesia with ether and 2 mℓ of a 20 µM anhydrous solution of Indomethacin was added thereto, followed by homogenization. After allowing to stand for 1 hour, the homogenate was subjected to centrifugation at 3000 rpm for 10 minutes and the supernatant liquor (PG mixture) was lyophilized. The resulting PG mixture was suspended in distilled water, and extracted with methanol by means of a column (vac elute). Then the extract was lyophilized, and subjected to measurement by means of a radioimmunoassay kit.

[4] = test system: Histamine-Induced Ulceration; experiment: Histamine-induced ulceration, area of lesions; assay type: in vivo; settings: rats, i.d., dose of SU-740 31.4 mg/kg (Complex 200.0 mg/kg); histamine 300 mg/kg i.p. 3 hours later, lesion area 4 hours thereafter
Description: The test was carried out in accordance with the method described in M. Muramatsu et al., Arzeneim. Forsch., Vol. 40(I)1, p. 49 (1990). The sample dispersed in a 1 % gum arabic suspension was intraduodenally administrated to rats having been deprived of food for 24 hours so as to make a dose of SU-740 become 31.4 mg/kg. Three hours later, 300 mg/kg of histamine was intraperitoneally administered, and 4 hours thereafter the abdomen was opened, and the area of lesions was measured to evaluate the inhibitory effect on mucosal lesions.

Gastric Acid Secretion = experiment: Gastric acid secretion in conscious dog with chronic fistula, stimulated by 2-deoxy-D-glucose; assay type: in vivo; settings: p.o., table doses: SU-740 200.0 mg/kg, Complex 200.0 (31.4 as SU-740) mg/kg
Description: The test was carried out in accordance with the method described in Gastroenterology, Vol. 85, p. 900 (1983). A dog to which a fistula had been chronically fitted was deprived of food for 20 hours. […] One hour later, 300 mg/kg of 2-deoxy-D-glucose was intravenously injected. Two hours from the injection, the gastric acid secretion was measured.

[5] = test system: Hydrochloric Acid-Induced Lesion; experiment: Hydrochloric acid-induced gastric mucosal lesion, length of ulcerations; assay type: in vivo, rat; settings: rats, intraduodenal, dose of SU-740 10, 35 or 60 mg/kg, 0.6 N hydrochloric acid 1 hour later; FIG. 6
Description: Seventy-two rats divided into 9 groups each consisting of 8 animals were used. A 0.2 mℓ/100 g of the sample dispersed in a 5 % gum arabic suspension was intraduodenally administered to a rat so as to make a dose of SU-740 become 10 mg, 35 mg or 60 mg per kg-body weight. β-Cyclodextrin was similarly administered at a dose corresponding to the SU-740 content in the complex obtained in Example 2. On hour later, 1 mℓ of 0.6 N hydrochloric acid was administered, and 1 hour thereafter the abdomen was opened, and the length of the ulcerations was measured to evaluate the inhibitory effect on mucosal lesions.

| absorbability [2] | Compound | % of Control ([1]; PG metabolic enzyme activity) [%] | PG Metabolic Enzyme Activity (nmol/mg protein/min) ([1]; gastric mucosa excised two hours later) | activity at 31.4 mg/kg ([3]; Rattus norvegicus, intraduodenal, PGE₂ content, read-out: % of Control) [%] | PGE₂ Content (pg/g wet weight) ([3]; gastric mucosa 24 hours after administration) | Inhibitory Ratio (%) [4] [%] | Inhibitory Ratio (%) (Gastric Acid Secretion; gastric acid secretion) | Gastric Acid Secretion (mEq/1 hr) (Gastric Acid Secretion; 2-deoxy-D-glucose 300 mg/kg i.v. one hour later) | inhibitory effect on mucosal lesions [5] |
| --- | --- | --- | --- | --- | --- | --- | --- | --- | --- |
| scarcely absorbed | CC(C)=CCOc1ccc(C(=O)/C=C/c2ccc(C(C)(C)C)cc2)c(OCC(=O)O)c1 [SU-740, 4-t-butyl-2'-carboxymethoxy-4'-(3-methyl-2-butenyloxy)chalcone] | 81.3 | 0.61±0.05 | 396 | 309.1±57.0 | 66.7 | 20.9 | 12.1±2.1 | – |
| – | OC[C@H]1O[C@@H]2O[C@H]3[C@H](O)[C@@H](O)[C@@H](O[C@H]4[C@H](O)[C@@H](O)[C@@H](O[C@H]5[C@H](O)[C@@H](O)[C@@H](O[C@H]6[C@H](O)[C@@H](O)[C@@H](O[C@H]7[C@H](O)[C@@H](O)[C@@H](O[C@H]8[C@H](O)[C@@H](O)[C@@H](O[C@H]1[C@H](O)[C@H]2O)O[C@@H]8CO)O[C@@H]7CO)O[C@@H]6CO)O[C@@H]5CO)O[C@@H]4CO)O[C@@H]3CO [β-Cyclodextrin, β-cyclodextrin] | – | – | – | – | – | – | – | little effect |
